In general, IC50 refers to the concentration that gives 50% inhibition.

Molecules are shown by their SMILES. Counter-ions that a name gives are not always drawn. A value given as a limit tells only on which side of the number the result lay.

Results on 37 compounds are retold here after patent US9169224B2, “Piperazinyl and piperidinyl ureas as modulators of fatty acid amide hydrolase” (Janssen Pharmaceutica NV, priority 2004, dated 2015).

Sequence of FAAH (O00519 whole entry): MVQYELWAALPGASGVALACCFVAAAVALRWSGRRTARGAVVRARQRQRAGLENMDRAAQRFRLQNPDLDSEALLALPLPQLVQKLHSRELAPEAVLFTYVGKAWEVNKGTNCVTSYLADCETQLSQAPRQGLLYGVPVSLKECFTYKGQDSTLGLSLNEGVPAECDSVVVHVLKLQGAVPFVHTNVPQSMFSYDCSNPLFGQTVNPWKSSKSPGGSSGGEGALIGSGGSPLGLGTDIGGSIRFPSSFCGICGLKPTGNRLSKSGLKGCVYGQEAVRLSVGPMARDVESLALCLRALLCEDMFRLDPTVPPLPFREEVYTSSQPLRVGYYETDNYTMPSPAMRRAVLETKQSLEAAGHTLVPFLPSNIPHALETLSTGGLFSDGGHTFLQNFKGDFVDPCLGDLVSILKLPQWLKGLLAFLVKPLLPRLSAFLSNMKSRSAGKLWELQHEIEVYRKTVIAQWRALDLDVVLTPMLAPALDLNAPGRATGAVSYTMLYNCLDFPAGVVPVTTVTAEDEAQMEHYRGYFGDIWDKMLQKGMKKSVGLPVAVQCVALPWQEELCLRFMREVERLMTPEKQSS

One assay deals with FAAH (Homo sapiens (Human), UniProt O00519). In words: Assay Method 1: FAAH assay, T84 cell homogenate, 3H-anandamide hydrolysis. Type of assay: biochemical. As to conditions: 3H-AEA tracer 200 nM, 1 h at rt. Here is the method:
T84 frozen pellets (contents of 1-4×15 cm culture dishes) were homogenized in 300 mL of FAAH assay buffer (125 mM Tris, 1 mM EDTA, 0.2% glycerol, 0.02% Triton X-100, 0.4 mM Hepes, pH 9). The assay mixture was prepared from 50 μL of the cell homogenate, 10 μL of the test compound, and 40 μL of anandamide [1-3H-ethanolamine] (^3H-AEA; Perkin-Elmer, 10.3 Ci/mmol), which was added last, for a final tracer concentration of 200 nM. The reaction mixture was incubated at rt for 1 hour (h). During the incubation, 96-well Multiscreen filter plates (catalog number MAFCNOB50; Millipore, Bedford, Mass., USA) were loaded with 25 μL of activated charcoal (Multiscreen column loader, catalog number MACL09625, Millipore) and washed once with 100 μL of MeOH. Also during the incubation, 96-well DYNEX MicroLite plates (catalog number NL510410) were loaded with 100 μL of MicroScint40 (catalog number 6013641, Packard Bioscience, Meriden, Conn., USA). After the 1 h incubation, 60 μL of the reaction mixture were transferred to the charcoal plates, which were then assembled on top of the DYNEX plates using Centrifuge Alignment Frames (catalog number MACF09604, Millipore). The unbound, labeled ethanolamine was centrifuged through to the bottom plate (5 min at 2000 rpm), which was preloaded with the scintillant, as described above. The plates were sealed and left at rt for 1 h before counting on a Hewlett Packard TopCount.
The compound `O=C(Nc1ccncc1)N1CCN(Cc2ccc(Br)c(Br)c2)CC1` [Example 116, 4-(3,4-Dibromo-benzyl)-piperazine-1-carboxylic acid pyridin-4-ylamide] yielded an IC50 of 240 nM.

Regarding `O=C(Nc1ccccn1)N1CCN(Cc2ccc(Br)c(Br)c2)CC1` [Example 117, 4-(3,4-Dibromo-benzyl)-piperazine-1-carboxylic acid pyridin-2-ylamide], the IC50 amounted to 360 nM.

Take `O=C(Nc1cccnc1)N1CCN(Cc2ccc(Br)c(Br)c2)CC1` [Example 118, 4-(3,4-Dibromo-benzyl)-piperazine-1-carboxylic acid pyridin-3-ylamide]: the IC50 turned out to be 27 nM.

As for `O=C(Nc1ccccc1)N1CCN(Cc2ccc(OC3CCCCC3)cc2)CC1` [Example 119, 4-(4-Cyclohexyloxy-benzyl)-piperazine-1-carboxylic acid phenylamide], the IC50 amounted to 1000 nM.

`CCCOc1cccc(CN2CCN(C(=O)Nc3ccccc3)CC2)c1` [Example 120, 4-(3-Propoxy-benzyl)-piperazine-1-carboxylic acid phenylamide]: 170 nM corresponded to half-maximal inhibition (IC50).

Compound `CC(C)COc1cccc(CN2CCN(C(=O)Nc3ccccc3)CC2)c1` [Example 121, 4-(3-Isobutoxy-benzyl)-piperazine-1-carboxylic acid phenylamide] showed an IC50 of 210 nM.

In turn, `CCOc1cccc(CN2CCN(C(=O)Nc3ccccc3)CC2)c1` [Example 122, 4-(3-Ethoxy-benzyl)-piperazine-1-carboxylic acid phenylamide] gave an IC50 of 220 nM.

Compound `CCCOc1ccc(CN2CCN(C(=O)Nc3ccccc3)CC2)cc1` [Example 123, 4-(4-Propoxy-benzyl)-piperazine-1-carboxylic acid phenylamide] came in with an IC50 of 1500 nM.

`CC(C)COc1ccc(CN2CCN(C(=O)Nc3ccccc3)CC2)cc1` [Example 124, 4-(4-Isobutoxy-benzyl)-piperazine-1-carboxylic acid phenylamide] gave an IC50 of 1800 nM.

In the case of `CN(C)CCOc1cccc(CN2CCN(C(=O)Nc3ccccc3)CC2)c1` [Example 125, 4-[3-(2-Dimethylamino-ethoxy)-benzyl]-piperazine-1-carboxylic acid phenylamide], the IC50 worked out at 10000 nM.

In turn, `O=C(Nc1ccccc1)N1CCN(Cc2cccc(OCCN3CCCCC3)c2)CC1` [Example 126, 4-[3-(2-Piperidin-1-yl-ethoxy)-benzyl]-piperazine-1-carboxylic acid phenylamide] had an IC50 of 2000 nM.

With `CN(C)CCCOc1cccc(CN2CCN(C(=O)Nc3ccccc3)CC2)c1` [Example 127, 4-[3-(3-Dimethylamino-propoxy)-benzyl]-piperazine-1-carboxylic acid phenylamide], the IC50 is 2000 nM.

In turn, `O=C(Nc1ccccc1)N1CCN(Cc2cccc(OCCCN3CCCCC3)c2)CC1` [Example 128, 4-[3-(3-Piperidin-1-yl-propoxy)-benzyl]-piperazine-1-carboxylic acid phenylamide] showed an IC50 of 2000 nM.

`CCOc1ccc(CN2CCN(C(=O)Nc3ccccc3)CC2)cc1` [Example 129, 4-(4-Ethoxy-benzyl)-piperazine-1-carboxylic acid phenylamide]: the IC50 came out at 2000 nM.

Compound `O=C(Nc1ccccc1)N1CCN(Cc2cccc(Oc3cccc(Cl)c3)c2)CC1` [Example 130, 4-[3-(3-Chloro-phenoxy)-benzyl]-piperazine-1-carboxylic acid phenylamide] showed an IC50 of 160 nM.

In turn, `O=C(Nc1ccccc1)N1CCN(Cc2cccc(Oc3ccc4ccccc4c3)c2)CC1` [Example 131, 4-[3-(Naphthalen-2-yloxy)-benzyl]-piperazine-1-carboxylic acid phenylamide] came in with an IC50 of 33 nM.

Regarding `O=C(Nc1ccccc1)N1CCN(Cc2cccc(Oc3cc4ccccc4c4ccccc34)c2)CC1` [Example 132, 4-[3-(Phenanthren-9-yloxy)-benzyl]-piperazine-1-carboxylic acid phenylamide], the 50% inhibitory concentration (IC50) turned out to be 3000 nM.

Turning to `COC(=O)c1ccc(Oc2cccc(CN3CCN(C(=O)Nc4ccccc4)CC3)c2)cc1` [Example 133, 4-[3-(4-Phenylcarbamoyl-piperazin-1-ylmethyl)-phenoxy]-benzoic acid methyl ester], it took 50 nM to reach half-maximal inhibition (IC50).

`CS(=O)(=O)c1ccc(Oc2cccc(CN3CCN(C(=O)Nc4ccccc4)CC3)c2)cc1` [Example 134, 4-[3-(4-Methanesulfonyl-phenoxy)-benzyl]-piperazine-1-carboxylic acid phenylamide] came in with an IC50 of 65 nM.

Take `COc1cccc(Oc2cccc(CN3CCN(C(=O)Nc4ccccc4)CC3)c2)c1` [Example 135, 4-[3-(3-Methoxy-phenoxy)-benzyl]-piperazine-1-carboxylic acid phenylamide]: the IC50 turned out to be 83 nM.

Turning to `O=C(Nc1ccccc1)N1CCN(Cc2cccc(Oc3ccc4c(c3)OCO4)c2)CC1` [Example 136, 4-[3-(Benzo[1,3]dioxol-5-yloxy)-benzyl]-piperazine-1-carboxylic acid phenylamide], inhibition was half-maximal at 67 nM (IC50).

As for `CS(=O)(=O)Oc1cccc(CN2CCN(C(=O)Nc3ccccc3)CC2)c1` [Example 137, Methanesulfonic acid 3-(4-phenylcarbamoyl-piperazin-1-ylmethyl)-phenyl ester], half-maximal inhibition (IC50) was put at 1000 nM.

`O=C(Nc1ccccc1)N1CCN(Cc2cccc(OS(=O)(=O)c3ccccc3)c2)CC1` [Example 138, Benzenesulfonic acid 3-(4-phenylcarbamoyl-piperazin-1-ylmethyl)-phenyl ester] came in with an IC50 of 59 nM.

`O=C(Nc1ccccc1)N1CCN(Cc2cccc(OS(=O)(=O)c3ccc(Cl)cc3)c2)CC1` [Example 139, 4-Chloro-benzenesulfonic acid 3-(4-phenylcarbamoyl-piperazin-1-ylmethyl)-phenyl ester] displayed an IC50 of 380 nM.

Turning to `O=C(Nc1ccccc1)N1CCN(Cc2cccc(I)c2)CC1` [Example A, 4-(3-Iodo-benzyl)-piperazine-1-carboxylic acid phenylamide, reference compound], inhibition was half-maximal at 120 nM (IC50).

Compound `O=C(Nc1ccccc1)N1CCN(Cc2cccc(Br)c2)CC1` [Example C, 4-(3-Bromo-benzyl)-piperazine-1-carboxylic acid phenylamide, reference compound] yielded an IC50 of 280 nM.

For the compound `Cc1ccc(CN2CCN(C(=O)Nc3ccccc3)CC2)cc1C` [Example D, 4-(3,4-Dimethyl-benzyl)-piperazine-1-carboxylic acid phenylamide, reference compound], the IC50 stood at 630 nM.

In the case of `Cc1ccc(CN2CCN(C(=O)Nc3ccccc3)CC2)cc1` [Example E, 4-(4-Methyl-benzyl)-piperazine-1-carboxylic acid phenylamide, reference compound], the IC50 was found to be 1300 nM.

`O=C(Nc1ccccc1)N1CCN(CCc2ccccc2)CC1` [Example F, 4-Phenethyl-piperazine-1-carboxylic acid phenylamide, reference compound] yielded an IC50 of over 10000 nM.

`O=C(Nc1ccccc1)N1CCC(Cc2ccccc2)CC1` [Example H, 4-Benzyl-piperidine-1-carboxylic acid phenylamide, reference compound] yielded an IC50 of 270 nM.

`O=C(Nc1ccccc1)N1CCN(CCCc2ccccc2)CC1` [Example I, 4-(3-Phenyl-propyl)-piperazine-1-carboxylic acid phenylamide, reference compound] had an IC50 of 1700 nM.

`O=C(Nc1ccccc1)N1CCN(Cc2ccccc2)CC1` [Example J, 4-Benzyl-piperazine-1-carboxylic acid phenylamide, reference compound] returned a half-inhibitory concentration (IC50) of 2000 nM.

`O=C(Nc1ccccc1)N1CCN(Cc2ccccc2OCc2ccccc2)CC1` [Example K, 4-(2-Benzyloxy-benzyl)-piperazine-1-carboxylic acid phenylamide, reference compound]: the IC50 is over 10000 nM.

Take `O=C(Nc1ccccc1)N1CCN(C2CCc3cc(Br)ccc3C2)CC1` (stereo not shown) [Example L, 4-(6-Bromo-1,2,3,4-tetrahydro-naphthalen-2-yl)-piperazine-1-carboxylic acid phenylamide, reference compound]: 370 nM corresponded to half-maximal inhibition (IC50).

Still in this assay, the particulars now being: 3H-AEA tracer 200 nM, 1 h at rt, dihydrochloride.
The compound `O=C(Nc1ccccc1)N1CCN(Cc2ccc3ccccc3n2)CC1` [Example 163, 4-Quinolin-2-ylmethyl-piperazine-1-carboxylic acid phenylamide dihydrochloride] showed an IC50 of 23 nM.

Still in this assay, the particulars now being: 3H-AEA tracer 200 nM, 1 h at rt, hydrochloride.
`COc1cc(Br)cc(CN2CCN(C(=O)Nc3ccccc3)CC2)c1O` [Example 161, 4-(5-Bromo-2-hydroxy-3-methoxy-benzyl)-piperazine-1-carboxylic acid phenylamide hydrochloride] came in with a concentration for half-maximal inhibition (IC50) of 210 nM.

`O=C(Nc1ccccc1)N1CCN(Cc2ccc3c(c2)OCO3)CC1` [Example B1, 4-Benzo[1,3]dioxol-5-ylmethyl-piperazine-1-carboxylic acid phenylamide hydrochloride, reference compound]: the IC50 stood at 1200 nM.
